{
  "source": "ChEMBL document CHEMBL4507317",
  "about": "“Data for DCP probe BAY-899” (2021)",
  "key": {"[1]": {"tested_on": "Proto-oncogene tyrosine-protein kinase receptor Ret (Homo sapiens), P07949 [V804M]", "sequence (P07949 whole entry V804M)": "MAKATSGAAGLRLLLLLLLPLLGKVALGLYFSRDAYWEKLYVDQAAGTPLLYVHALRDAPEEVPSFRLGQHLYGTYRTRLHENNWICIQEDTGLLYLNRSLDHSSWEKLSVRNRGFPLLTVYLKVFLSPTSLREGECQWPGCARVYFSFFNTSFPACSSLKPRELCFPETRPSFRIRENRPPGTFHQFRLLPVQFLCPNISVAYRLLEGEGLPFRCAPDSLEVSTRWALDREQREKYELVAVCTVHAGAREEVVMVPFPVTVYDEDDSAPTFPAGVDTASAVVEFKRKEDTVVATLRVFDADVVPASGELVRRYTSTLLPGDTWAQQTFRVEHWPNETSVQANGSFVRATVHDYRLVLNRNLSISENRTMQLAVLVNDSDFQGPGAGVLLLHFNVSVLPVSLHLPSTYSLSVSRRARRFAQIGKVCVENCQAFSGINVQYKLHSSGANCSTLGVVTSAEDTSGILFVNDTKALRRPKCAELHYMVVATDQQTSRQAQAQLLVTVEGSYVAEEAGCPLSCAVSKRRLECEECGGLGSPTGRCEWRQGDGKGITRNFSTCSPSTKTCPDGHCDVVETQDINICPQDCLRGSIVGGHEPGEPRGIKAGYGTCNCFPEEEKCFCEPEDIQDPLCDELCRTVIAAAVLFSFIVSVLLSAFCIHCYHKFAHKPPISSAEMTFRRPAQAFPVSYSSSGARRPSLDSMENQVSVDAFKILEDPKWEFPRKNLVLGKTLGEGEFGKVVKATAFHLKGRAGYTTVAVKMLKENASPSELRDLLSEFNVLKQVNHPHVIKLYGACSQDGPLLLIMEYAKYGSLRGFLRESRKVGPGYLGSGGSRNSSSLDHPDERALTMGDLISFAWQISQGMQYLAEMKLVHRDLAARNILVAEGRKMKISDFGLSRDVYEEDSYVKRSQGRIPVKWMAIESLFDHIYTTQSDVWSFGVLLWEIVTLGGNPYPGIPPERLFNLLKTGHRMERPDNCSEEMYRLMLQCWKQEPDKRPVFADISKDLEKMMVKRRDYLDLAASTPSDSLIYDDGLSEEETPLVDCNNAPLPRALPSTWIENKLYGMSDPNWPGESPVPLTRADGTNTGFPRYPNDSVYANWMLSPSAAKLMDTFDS", "conditions": "Compound concentration 1000.0 nM"}, "[2]": {"target": "5-hydroxytryptamine receptor 5A (Homo sapiens) (UniProt P47898)", "conditions": "Compound concentration 10.0 uM"}, "[3]": {"target": "Protein kinase C epsilon type (Homo sapiens) (UniProt Q02156)", "conditions": "Compound concentration 1000.0 nM"}, "[4]": {"target": "Beta-3 adrenergic receptor (Homo sapiens) (UniProt P13945)", "conditions": "Compound concentration 10.0 uM"}, "[5]": {"target": "5-hydroxytryptamine receptor 2A (Homo sapiens, UniProt P28223)", "assay": "GPCRScan assay: inhibition of 5-HT2A", "set-up": "radioligand conc. used [nm] 1.2 – 2.4, parental cells HEKT"}, "[6]": {"target": "5-hydroxytryptamine receptor 2C (Homo sapiens, UniProt P28335)", "assay": "GPCRScan assay: inhibition of 5-HT2C", "set-up": "radioligand conc. used [nm] 1.0 – 2.5, parental cells HEK T"}, "[7]": {"target": "Homeodomain-interacting protein kinase 1 (Homo sapiens) (UniProt Q86Z02)", "conditions": "Compound concentration 1000.0 nM"}, "[8]": {"target": "Cannabinoid receptor 1 (Homo sapiens) (UniProt P21554)", "sequence (P21554 whole entry)": "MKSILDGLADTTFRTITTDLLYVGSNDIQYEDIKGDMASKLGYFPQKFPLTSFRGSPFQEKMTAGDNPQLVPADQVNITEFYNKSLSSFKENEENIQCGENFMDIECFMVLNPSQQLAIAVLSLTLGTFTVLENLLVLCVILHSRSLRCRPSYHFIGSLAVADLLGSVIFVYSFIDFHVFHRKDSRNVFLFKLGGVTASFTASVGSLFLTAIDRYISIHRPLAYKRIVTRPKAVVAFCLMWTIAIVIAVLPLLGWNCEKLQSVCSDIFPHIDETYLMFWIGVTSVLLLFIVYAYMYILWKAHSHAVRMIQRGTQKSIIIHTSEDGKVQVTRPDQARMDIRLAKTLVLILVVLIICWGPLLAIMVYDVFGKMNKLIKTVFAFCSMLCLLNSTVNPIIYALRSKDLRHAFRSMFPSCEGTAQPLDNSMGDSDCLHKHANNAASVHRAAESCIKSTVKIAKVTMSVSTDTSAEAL", "assay": "CB1 Eurofins Bayer panel", "conditions": "Compound concentration 10.0 uM"}, "[9]": {"target": "Prostaglandin E2 receptor EP3 subtype (Homo sapiens) (UniProt P43115)", "sequence (P43115 whole entry)": "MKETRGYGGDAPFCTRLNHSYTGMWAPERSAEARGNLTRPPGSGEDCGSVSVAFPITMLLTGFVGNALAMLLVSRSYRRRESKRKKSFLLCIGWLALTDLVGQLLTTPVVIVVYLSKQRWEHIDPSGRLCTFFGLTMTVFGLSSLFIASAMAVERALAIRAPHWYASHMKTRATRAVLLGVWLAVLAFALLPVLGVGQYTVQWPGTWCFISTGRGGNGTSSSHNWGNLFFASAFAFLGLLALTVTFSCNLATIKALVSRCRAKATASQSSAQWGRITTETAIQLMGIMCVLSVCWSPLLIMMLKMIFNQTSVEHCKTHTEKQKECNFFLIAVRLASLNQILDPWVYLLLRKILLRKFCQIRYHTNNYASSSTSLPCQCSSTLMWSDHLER", "assay": "EP3 Eurofins Bayer panel", "conditions": "Compound concentration 10.0 uM"}, "[10]": {"target": "Motilin receptor (Homo sapiens) (UniProt O43193)", "assay": "Motilin Eurofins Bayer panel", "conditions": "Compound concentration 10.0 uM"}, "[11]": {"target": "Adenosine receptor A2b (Homo sapiens) (UniProt P29275)", "sequence (P29275 whole entry)": "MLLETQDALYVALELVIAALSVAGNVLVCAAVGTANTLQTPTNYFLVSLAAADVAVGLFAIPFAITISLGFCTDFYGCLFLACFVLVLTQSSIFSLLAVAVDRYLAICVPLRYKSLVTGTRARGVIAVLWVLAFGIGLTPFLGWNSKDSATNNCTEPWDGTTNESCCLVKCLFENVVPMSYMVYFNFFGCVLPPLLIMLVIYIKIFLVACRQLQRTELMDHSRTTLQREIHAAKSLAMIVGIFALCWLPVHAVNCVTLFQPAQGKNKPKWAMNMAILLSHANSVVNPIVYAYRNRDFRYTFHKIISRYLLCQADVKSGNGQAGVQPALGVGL", "assay": "A2B Eurofins Bayer panel", "conditions": "Compound concentration 10.0 uM"}, "[12]": {"target": "T1, Alpha-2A adrenergic receptor (Homo sapiens) (UniProt P08913)", "T1 sequence (whole entry)": "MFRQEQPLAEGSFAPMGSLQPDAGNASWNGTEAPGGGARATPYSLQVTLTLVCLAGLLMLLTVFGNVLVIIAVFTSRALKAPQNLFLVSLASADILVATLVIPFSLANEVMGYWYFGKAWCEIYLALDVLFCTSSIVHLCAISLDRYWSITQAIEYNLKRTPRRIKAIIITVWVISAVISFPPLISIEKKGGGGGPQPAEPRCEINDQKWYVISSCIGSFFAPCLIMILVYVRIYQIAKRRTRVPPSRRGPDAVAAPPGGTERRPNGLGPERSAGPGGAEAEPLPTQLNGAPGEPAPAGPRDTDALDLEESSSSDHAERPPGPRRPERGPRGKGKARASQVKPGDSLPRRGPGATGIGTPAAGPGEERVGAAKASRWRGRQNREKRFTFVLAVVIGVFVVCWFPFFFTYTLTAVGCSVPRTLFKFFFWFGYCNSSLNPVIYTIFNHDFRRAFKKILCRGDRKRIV", "assay": "alpha 2A Eurofins Bayer panel", "conditions": "Compound concentration 10.0 uM"}, "[13]": {"target": "5-hydroxytryptamine receptor 2B (Homo sapiens, UniProt P41595)", "assay": "5-HT2B Eurofins Bayer panel", "conditions": "Compound concentration 10.0 uM"}, "[14]": {"target": "Adenosine receptor A3 (Homo sapiens) (UniProt P0DMS8)", "sequence (P0DMS8 whole entry)": "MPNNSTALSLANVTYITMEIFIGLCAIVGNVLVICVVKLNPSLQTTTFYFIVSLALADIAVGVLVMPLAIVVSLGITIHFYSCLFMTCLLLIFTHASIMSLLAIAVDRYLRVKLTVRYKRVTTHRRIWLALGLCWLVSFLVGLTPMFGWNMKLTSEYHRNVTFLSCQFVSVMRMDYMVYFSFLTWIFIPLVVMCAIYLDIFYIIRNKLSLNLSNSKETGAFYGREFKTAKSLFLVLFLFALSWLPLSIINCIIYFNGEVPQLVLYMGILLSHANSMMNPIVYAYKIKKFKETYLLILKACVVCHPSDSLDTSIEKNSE", "assay": "A3 Eurofins Bayer panel", "conditions": "Compound concentration 10.0 uM"}, "[15]": {"target": "Melanocortin receptor 4 (Homo sapiens) (UniProt P32245)", "assay": "MC4 Eurofins Bayer panel", "conditions": "Compound concentration 10.0 uM"}, "[16]": {"target": "Kappa-type opioid receptor (Homo sapiens, UniProt P41145)", "sequence (P41145 whole entry)": "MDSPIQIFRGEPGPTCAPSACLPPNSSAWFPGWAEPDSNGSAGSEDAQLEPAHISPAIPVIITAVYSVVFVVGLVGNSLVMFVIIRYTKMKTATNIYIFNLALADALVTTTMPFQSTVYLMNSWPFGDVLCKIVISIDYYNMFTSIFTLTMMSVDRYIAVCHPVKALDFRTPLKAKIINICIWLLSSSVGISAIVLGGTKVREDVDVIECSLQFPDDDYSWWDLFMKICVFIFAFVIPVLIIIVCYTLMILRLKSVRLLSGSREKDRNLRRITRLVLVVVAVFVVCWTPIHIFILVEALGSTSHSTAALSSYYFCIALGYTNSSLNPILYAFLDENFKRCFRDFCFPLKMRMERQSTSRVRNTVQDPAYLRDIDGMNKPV", "assay": "kappa (KOP) Eurofins Bayer panel", "conditions": "Compound concentration 10.0 uM"}, "[17]": {"target": "D(2) dopamine receptor (Homo sapiens) (UniProt P14416)", "assay": "D2L Eurofins Bayer panel", "conditions": "Compound concentration 10.0 uM"}, "[18]": {"tested_on": "Receptor-type tyrosine-protein kinase FLT3 (Homo sapiens), P36888 [K663Q]", "conditions": "Compound concentration 1000.0 nM"}, "[19]": {"target": "Histamine H2 receptor (Homo sapiens) (UniProt P25021)", "sequence (P25021 whole entry)": "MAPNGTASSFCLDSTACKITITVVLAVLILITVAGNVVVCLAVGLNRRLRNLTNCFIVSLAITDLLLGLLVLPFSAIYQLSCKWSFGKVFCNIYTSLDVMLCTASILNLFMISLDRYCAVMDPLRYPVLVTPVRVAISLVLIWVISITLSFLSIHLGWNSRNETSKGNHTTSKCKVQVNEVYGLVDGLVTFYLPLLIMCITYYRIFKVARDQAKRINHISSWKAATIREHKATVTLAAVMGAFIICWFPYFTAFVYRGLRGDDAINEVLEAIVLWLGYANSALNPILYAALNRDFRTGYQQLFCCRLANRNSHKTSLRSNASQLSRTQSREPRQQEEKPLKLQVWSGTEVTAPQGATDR", "assay": "H2 Eurofins Bayer panel", "conditions": "Compound concentration 10.0 uM"}, "[20]": {"target": "5-hydroxytryptamine receptor 7 (Homo sapiens) (UniProt P34969)", "conditions": "Compound concentration 10.0 uM"}, "[21]": {"target": "Beta-1 adrenergic receptor (Homo sapiens) (UniProt P08588)", "sequence (P08588 whole entry, looked up)": "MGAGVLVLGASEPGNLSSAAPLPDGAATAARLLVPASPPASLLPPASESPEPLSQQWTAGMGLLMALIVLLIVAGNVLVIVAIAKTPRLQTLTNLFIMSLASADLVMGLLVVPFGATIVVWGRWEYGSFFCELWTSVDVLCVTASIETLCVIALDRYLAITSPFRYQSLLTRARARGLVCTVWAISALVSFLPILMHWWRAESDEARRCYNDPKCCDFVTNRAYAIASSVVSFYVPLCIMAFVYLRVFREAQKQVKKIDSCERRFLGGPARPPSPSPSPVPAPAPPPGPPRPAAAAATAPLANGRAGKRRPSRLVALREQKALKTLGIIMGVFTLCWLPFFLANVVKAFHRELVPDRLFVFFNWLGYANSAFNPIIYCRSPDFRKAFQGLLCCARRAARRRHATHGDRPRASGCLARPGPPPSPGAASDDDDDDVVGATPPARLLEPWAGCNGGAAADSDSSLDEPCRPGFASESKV", "assay": "beta 1 Eurofins Bayer panel", "conditions": "Compound concentration 10.0 uM"}, "[22]": {"target": "T2, Alpha-1A adrenergic receptor (Homo sapiens) (UniProt P35348)", "T2 sequence (whole entry)": "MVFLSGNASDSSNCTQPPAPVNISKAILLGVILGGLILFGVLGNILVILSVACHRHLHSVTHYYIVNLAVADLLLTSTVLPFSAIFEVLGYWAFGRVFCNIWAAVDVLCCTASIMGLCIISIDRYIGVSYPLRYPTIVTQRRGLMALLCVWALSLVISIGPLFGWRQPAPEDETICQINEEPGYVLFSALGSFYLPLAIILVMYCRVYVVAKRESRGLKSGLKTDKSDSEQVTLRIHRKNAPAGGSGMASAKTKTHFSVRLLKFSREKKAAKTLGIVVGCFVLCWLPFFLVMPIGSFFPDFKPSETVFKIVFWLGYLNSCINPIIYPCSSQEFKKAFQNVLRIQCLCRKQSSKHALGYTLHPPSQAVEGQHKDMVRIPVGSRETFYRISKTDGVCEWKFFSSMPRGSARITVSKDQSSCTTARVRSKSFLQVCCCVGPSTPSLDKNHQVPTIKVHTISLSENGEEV", "assay": "alpha 1A Eurofins Bayer panel", "conditions": "Compound concentration 10.0 uM"}, "[23]": {"target": "P2Y purinoceptor 2 (Homo sapiens) (UniProt P41231)", "sequence (P41231 whole entry)": "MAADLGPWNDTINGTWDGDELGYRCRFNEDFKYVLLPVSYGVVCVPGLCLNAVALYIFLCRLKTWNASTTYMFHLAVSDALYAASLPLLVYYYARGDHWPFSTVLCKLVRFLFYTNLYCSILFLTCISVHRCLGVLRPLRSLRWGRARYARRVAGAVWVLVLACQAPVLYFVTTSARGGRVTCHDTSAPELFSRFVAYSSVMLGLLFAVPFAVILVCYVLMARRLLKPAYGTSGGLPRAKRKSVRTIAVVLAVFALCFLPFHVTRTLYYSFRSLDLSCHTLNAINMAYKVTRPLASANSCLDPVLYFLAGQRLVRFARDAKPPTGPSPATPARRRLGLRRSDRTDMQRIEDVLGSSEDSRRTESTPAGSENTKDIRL", "assay": "P2Y2 Eurofins Bayer panel", "conditions": "Compound concentration 10.0 uM"}, "[24]": {"target": "Histamine H3 receptor (Homo sapiens) (UniProt Q9Y5N1)", "assay": "H3 Eurofins Bayer panel", "conditions": "Compound concentration 10.0 uM"}, "[25]": {"target": "Somatostatin receptor type 4 (Homo sapiens) (UniProt P31391)", "assay": "sst4 Eurofins Bayer panel", "conditions": "Compound concentration 10.0 uM"}, "[26]": {"target": "5-hydroxytryptamine receptor 6 (Homo sapiens) (UniProt P50406)", "sequence (P50406 whole entry)": "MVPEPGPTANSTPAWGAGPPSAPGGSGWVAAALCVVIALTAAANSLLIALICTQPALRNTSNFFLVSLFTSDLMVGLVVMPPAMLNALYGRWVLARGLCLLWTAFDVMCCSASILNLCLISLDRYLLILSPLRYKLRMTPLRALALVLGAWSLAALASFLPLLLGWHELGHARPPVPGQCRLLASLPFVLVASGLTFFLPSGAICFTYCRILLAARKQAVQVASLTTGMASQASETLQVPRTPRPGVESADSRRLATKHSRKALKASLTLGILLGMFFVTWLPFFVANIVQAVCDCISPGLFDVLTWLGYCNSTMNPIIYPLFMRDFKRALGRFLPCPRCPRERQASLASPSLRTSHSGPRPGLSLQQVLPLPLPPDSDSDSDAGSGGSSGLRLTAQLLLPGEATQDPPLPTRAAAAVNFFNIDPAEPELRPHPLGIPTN", "assay": "5-HT6 Eurofins Bayer panel", "conditions": "Compound concentration 10.0 uM"}, "[27]": {"target": "T3, 5-hydroxytryptamine receptor 1A (Homo sapiens) (UniProt P08908)", "T3 sequence (whole entry)": "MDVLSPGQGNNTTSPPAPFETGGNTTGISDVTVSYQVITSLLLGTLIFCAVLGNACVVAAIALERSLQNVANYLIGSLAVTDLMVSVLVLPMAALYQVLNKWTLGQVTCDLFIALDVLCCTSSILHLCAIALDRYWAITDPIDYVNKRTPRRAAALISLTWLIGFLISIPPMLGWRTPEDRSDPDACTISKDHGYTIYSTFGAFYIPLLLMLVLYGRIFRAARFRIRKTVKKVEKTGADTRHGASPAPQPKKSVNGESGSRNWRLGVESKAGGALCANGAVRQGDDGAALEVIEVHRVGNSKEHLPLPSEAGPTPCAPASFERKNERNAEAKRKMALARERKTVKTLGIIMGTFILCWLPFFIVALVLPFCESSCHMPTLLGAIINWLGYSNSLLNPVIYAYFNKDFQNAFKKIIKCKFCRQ", "assay": "5-HT1A Eurofins Bayer panel", "conditions": "Compound concentration 10.0 uM"}},
  "data": [
    {"smiles": "O=C(Nc1ccc(Oc2ccc(F)cc2)cc1)N1CCc2ncccc2[C@H]1c1ccc(F)cc1", "note": "[BAY-897]", "values": [
      {"measurement": "residual activity", "setting": "[1]", "result": 94, "unit": "%"},
      {"measurement": "inhibition", "setting": "[2]", "result": 7.18, "unit": "%"},
      {"measurement": "residual activity", "setting": "[3]", "result": 100, "unit": "%"},
      {"measurement": "inhibition", "setting": "[4]", "result": 29.4, "unit": "%"},
      {"measurement": "Ki", "setting": "[5]", "result": 3670, "unit": "nM"},
      {"measurement": "Ki", "setting": "[6]", "result": 1080, "unit": "nM"},
      {"measurement": "residual activity", "setting": "[7]", "result": 96, "unit": "%"}
    ]},
    {"smiles": "O=C(Nc1cnc(Oc2ccc(F)cc2)nc1)N1CCc2ncccc2[C@@H]1c1ccc(F)cc1", "note": "[BAY-899]", "values": [
      {"measurement": "Activation (% of control)", "setting": "[8]", "result": 52, "unit": "%"},
      {"measurement": "Inhibition (% of control)", "setting": "[8]", "result": 4, "unit": "%"},
      {"measurement": "Activation (% of control)", "setting": "[9]", "result": -1, "unit": "%"},
      {"measurement": "Inhibition (% of control)", "setting": "[9]", "result": -5, "unit": "%"},
      {"measurement": "Activation (% of control)", "setting": "[10]", "result": -1, "unit": "%"},
      {"measurement": "Inhibition (% of control)", "setting": "[10]", "result": 28, "unit": "%"},
      {"measurement": "Activation (% of control)", "setting": "[11]", "result": -1, "unit": "%"},
      {"measurement": "Inhibition (% of control)", "setting": "[11]", "result": 16, "unit": "%"},
      {"measurement": "Activation (% of control)", "setting": "[12]", "result": -2, "unit": "%"},
      {"measurement": "Inhibition (% of control)", "setting": "[12]", "result": -16, "unit": "%"},
      {"measurement": "Activation (% of control)", "setting": "[13]", "result": 1, "unit": "%"},
      {"measurement": "Inhibition (% of control)", "setting": "[13]", "result": 18, "unit": "%"},
      {"measurement": "residual activity", "setting": "[1]", "result": 94, "unit": "%"},
      {"measurement": "Activation (% of control)", "setting": "[14]", "result": 25, "unit": "%"},
      {"measurement": "Inhibition (% of control)", "setting": "[14]", "result": -6, "unit": "%"},
      {"measurement": "Activation (% of control)", "setting": "[15]", "result": -2, "unit": "%"},
      {"measurement": "Inhibition (% of control)", "setting": "[15]", "result": 11, "unit": "%"},
      {"measurement": "Activation (% of control)", "setting": "[16]", "result": 56, "unit": "%"},
      {"measurement": "Inhibition (% of control)", "setting": "[16]", "result": -10, "unit": "%"},
      {"measurement": "Activation (% of control)", "setting": "[17]", "result": -1, "unit": "%"},
      {"measurement": "Inhibition (% of control)", "setting": "[17]", "result": 67, "unit": "%"},
      {"measurement": "residual activity", "setting": "[18]", "result": 100, "unit": "%"},
      {"measurement": "residual activity", "setting": "[3]", "result": 100, "unit": "%"},
      {"measurement": "Activation (% of control)", "setting": "[19]", "result": -2, "unit": "%"},
      {"measurement": "Inhibition (% of control)", "setting": "[19]", "result": 34, "unit": "%"},
      {"measurement": "inhibition", "setting": "[20]", "result": 2.63, "unit": "%"},
      {"measurement": "Activation (% of control)", "setting": "[21]", "result": -1, "unit": "%"},
      {"measurement": "Inhibition (% of control)", "setting": "[21]", "result": 13, "unit": "%"},
      {"measurement": "residual activity", "setting": "[7]", "result": 70, "unit": "%"},
      {"measurement": "Activation (% of control)", "setting": "[22]", "result": 2, "unit": "%"},
      {"measurement": "Inhibition (% of control)", "setting": "[22]", "result": 45, "unit": "%"},
      {"measurement": "Activation (% of control)", "setting": "[23]", "result": -1, "unit": "%"},
      {"measurement": "Inhibition (% of control)", "setting": "[23]", "result": 8, "unit": "%"},
      {"measurement": "Activation (% of control)", "setting": "[24]", "result": 38, "unit": "%"},
      {"measurement": "Inhibition (% of control)", "setting": "[24]", "result": -19, "unit": "%"},
      {"measurement": "Activation (% of control)", "setting": "[25]", "result": 23, "unit": "%"},
      {"measurement": "Inhibition (% of control)", "setting": "[25]", "result": 6, "unit": "%"},
      {"measurement": "Activation (% of control)", "setting": "[26]", "result": -1, "unit": "%"},
      {"measurement": "Inhibition (% of control)", "setting": "[26]", "result": 12, "unit": "%"},
      {"measurement": "Activation (% of control)", "setting": "[27]", "result": 1, "unit": "%"},
      {"measurement": "Inhibition (% of control)", "setting": "[27]", "result": 0, "unit": "%"}
    ]}
  ]
}
